Assay results: patent US6544533B2, “10-hydroxy-2-decenoic acid compounds for promoting desquamation/epidermal renewal of the skin and/or combating skin aging” (Societe L'Oreal S.A., priority 1998, dated 2003)

These molecules were tested on differentiated human keratinocytes (assay: in vitro screening of desquamating activity: release of corneocytes (cellular detachment index) counted by flow cytometry). Conditions: compounds at 5·10^−5 M, 60 minutes after addition.
Type: cell-based
Procedure: This test of in vitro screening of an agent which is active with regard to desquamation was carried out on differentiated human keratinocytes. The principle of the test is based on the fact that desquamation induces the release of corneocytes. The desquamating power of the test product increases as the number of corneocytes released increases.
The protocol of the test was as follows: beginning with biopsies of human skin, the keratinocytes obtained by separation from the epidermis were dissociated by enzymatic action with trypsin and were cultured at a concentration of 2·10^5 cell/ml. The growth and differentiation of the keratinocytes was obtained by culturing for 10 to 20 days in a specific medium. The activity of the test product was then evaluated after removal of the culture medium. To accomplish this, two samples were taken at T0 and T60, namely, before the addition of the test product and 60 minutes after this addition. The samples thus taken were analyzed with a flow cytometer in order to count the population of corneocytes. The flow cytometer made it possible to distinguish the populations of corneocytes and of keratinocytes by treatment with acridine orange, which is specific for cellular DNA.
The cellular detachment index was determined by the difference between T60 and T0. The same measurement was carried out for a control not comprising test product, because the experiment inevitably produces the release of corneocytes, even in the absence of active principles.
The test was carried out with compounds at a concentration of 5·10^−5M.
In the case of `COCCOCOCC(COC(=O)/C=C/CCCCCCCO)OC(=O)/C=C/CCCCCCCO` (stereo not drawn) [3-[(2-methoxyethoxy)methoxy]propyl 1,2-di(10-hydroxydec-2-enoate)], the “% of activity with respect to the control composed of an identical culture in the absence of compound (cellular detachment index, T60 minus T0)” value is reported as 124.16%. In the case of `O=C(/C=C/CCCCCCCO)OCC(COC(=O)/C=C/CCCCCCCO)OC(=O)/C=C/CCCCCCCO` [Propyl 1,2,3-tri(10-hydroxydec-2-enoate), propyl 1,2,3-tri(10-hydroxydec-2-enoate)], the “% of activity with respect to the control composed of an identical culture in the absence of compound (cellular detachment index, T60 minus T0)” value is reported as 148.52%. `CCCCCCCC(=O)c1ccc(O)c(C(=O)O)c1` [Reference, 2-Hydroxy-5-octanoylbenzoic acid, reference compound] was tested, and the “% of activity with respect to the control composed of an identical culture in the absence of compound (cellular detachment index, T60 minus T0)” value was 91.95%.
